From patent publication US20110269790A1, “NOVEL THIENOPYRIDINES AS PHARMACOLOGICALLY ACTIVE AGENTS” (priority 2009, published 2011)
“And” between values parts separate entries of the source, which are not always exact repeats. Equal values may be shown once.

Tests used:
Wistar rats [1] = test: Arachidonic acid induced paw edema; type: in vivo, rat; conditions: one hour after Arachidonic acid
Description: Paw edema was produced in rats by Arachidonic acid following the method of Dimartino et al. (1987) and Laura segura et al., 1998. wistar rats weighing between 130-150 g were divided in to groups of six animals (n=6).A volume of 0.1 ml of 0.5% Arachidonic acid in 0.2M Carbonate buffer was injected in to the plantar side of the right hind paw of the rat. Paw volumes were measured using plethysmometer before and after one hour Arachidonic acid injection. Results obtained were compared with those obtained from the control group, which received vehicle only.

Wistar rats [2] = test: Freund's complete adjuvant (FCA) induced arthritis; type: in vivo, rat; conditions: 17th day and 21st day, 100 mg/kg, vs arthritic control
rats = test: Acute oral toxicity, sighting study in rats; type: in vivo, rat; conditions: for Toxic symptoms and mortality, sighting study: single oral doses 5, 50, 500, and 2000 mg/kg, observed 14 days
Description: In the series of thioenopyridine derivatives compounds BN-4, BN-14 and BN-16 show good antiinflammatory potential in all models tested. […] Acute Oral Toxicity Study was conducted following OECD guidelines by fixed dose method adopted by OECD (420). The study involved preliminary sighting using small number of animals in order to derive the dose effect relation for toxicity and mortality and to provide information on dose selection for the main study.
(§1) In the preliminary sighting study, the effect of various dosed administered to single animals of each sex was investigated in a sequential manner. The sighting study generally yields information on the dose-toxicity relationship including an estimate of the minimum lethal dose. In the main study, the test article is administered to groups of 5 males and 5 female animals at one of the fixed doses (5, 50, 500 and 2000 mg/Kg). The dose is derived from the sighting study. It is immediately below that which is expected to result in mortality. If evident toxicity is not seen at the chosen dose level, the substance should be retested at the next higher dose level. If at the initial dose level, animals die, or a severe toxicity reaction requires removal of animals from the study for animal welfare reasons, the substance is retested at the next lower dose level. Consideration of data from the both sighting study and the main study enabled a judgment to be made on determination of maximum tolerated dose.
Sighting Study: Animals were fasted overnight. Following period of fasting, the animals were weighed and were administered the test articles by oral route. After the test substance was administered food was withheld for further 3 to 4 hrs. In the sighting study, the effect of various doses was investigated in single animals of each sex. Dosing was sequential allowing at least 24 hrs before dosing the next animal. All animals were carefully observed for signs and symptoms of toxicity continuously up to 24 hrs and later up to 7 days. […] In this sighting study, the dose that produced evident toxicity but not death was identified. […]

IL-1β = IL-1β assay in murine macrophage cell line; type: cell-based, mouse; conditions: 50, 25, 12.5 μg/ml with LPS
Description: Cell Culture and Treatment: The RAW 264.7 (mouse macrophages, national center for cellular sciences) cells were grown in plastic T-25 culture flask in Dulbeccos modified eagles medium (DMEM) without phenol red supplemented with 10% heat activated serum (heating at 57° C. for 30 minutes, 100 μg per ml penicillin, 200 μg per ml streptomycin, 2 mmol L-glutamine, 1% antibiotic/Anti mycotic solution (GIBCO/SRL) under 5% co2 with 85% relative humidity at 37° C. After 2-3 days cells were removed from the culture flask by tripsinizing the cells with Trypsin EDTA solution. Cell count and viability was performed using a standard Trypan blue dye exclusion method. The cell concentration was adjusted to 1×10^5 cells per ml in each well with the same media in the 12 well plates. After 24 hrs incubation the media was removed from each well replaced with a fresh one containing different concentrations (50 μg, 25 μg, 12.5 μg) of the synthetic compounds BN-4, BN-14 and BN-16 along with 10 μg/ml LPS, where as normal control (PBS) and positive controls (Dexa, Roli) LPS (10 μg/ml), were added. 200 μl of media from each well was collected at 6 hrs for the estimation of TNF-α and after 24 hrs for Nitric Oxide respectively. The adherent cells, which remained after removing the media was subjected to […] for determining the cytotoxicity of compounds at selected concentrations
To determine the mechanism of action all test compounds were screened for invitro anti-inflammatory methods, which include TNF-a and IL-1b and Nitric Oxide. […] TNF-a is a pleiotropic cytokine, which plays a critical role in both acute and chronic inflammation (Holtzmann et al., 2002). Several inflammagens have the ability of inducing the synthesis of TNF-a. Formation of a number of small molecular mediators of inflammation is linked with TNF-a and contributes to the range of mediators that critically control inflammation. TNF-a facilitates inflammatory cell infiltration by promoting the adhesion of neutrophils and lymphocytes to endothelial cells (Dinarello, 1997).

[3] = Acute oral toxicity, main study in rats; conditions: both sexes, Albino Wistar, rat, in vivo, single oral dose, read-out: Maximum tolerated dose
Description: as §1
At least 10 animals (5 males and 5 females) for each species were used for dose level in this study. Animals were fasted overnight and test articles were administered as 1% gum acacia suspension orally. The dose used in this study is selected from one of four levels 5 mg/kg, 50 mg/kg, 500 mg/kg and 2000 mg/kg i.e. the dose that produced evident toxicity but not mortality in sighting study. […] Different biochemical and hematology parameters observed on “0’ day and on termination day .During main study physical parameters like feed consumption and body weight increase were also recorded. 5 males and females were taken, and toxicity study conducted for the compounds. […] Hematology and biochemical parameters were well and within normal range when compared with 0 day in rats and mice. Based on above observations synthetic compounds were safe upto 2000 mg/kg.

SMILES | % Inhibition (Wistar rats [1]; 50 mg/kg) [%] | Percentage Swelling (50 mg/kg) (Wistar rats [1]; 50 mg/kg) [%] | % Inhibition (Wistar rats [1]; 100 mg/kg) [%] | Percentage Swelling (100 mg/kg) (Wistar rats [1]; 100 mg/kg) [%] | % Inhibition (Wistar rats [1]; 200 mg/kg) | Percentage Swelling (200 mg/kg) (Wistar rats [1]; 200 mg/kg) [%] | Arthritic scoring (Wistar rats [2]) | Toxic symptoms and mortality, sighting study (rats) | Production of IL-1β from murine macrophage cell line (IL-1β) | MTD at 14 days [3] [mg/kg] | Toxicity, sighting study (rats; doses 2000 and 1250 mg/kg in rats)
Cc1sc2nc3c(c(N)c2c1C)CCCCC3 [BN-4, 2,3-dimethyl-6,7,8,9-tetrahydro-5H-cyclohepta[b]thieno[3,2-e]pyridin-4-amine] | 19.13 ± 2.01 | 55.32 ± 2.06 | 29.94 ± 3.37 | 48.54 ± 2.2 | 44.92% and 44.92 ± 3.10% | 37.50 ± 1.60 | significantly reduced | do not show any toxic symptoms and mortality | inhibitory effect | > 2000 | 
Nc1c2c(nc3sc4c(c13)CCC4)CCCC2 [BN-14, 2,3,6,7,8,9-Hexahydro-1H-cyclopenta[4,5]thieno[2,3-b]quinolin-10-amine] | 24.21 ± 3.89 | 50.56 ± 3.12 | 33.6 ± 3.11 | 45.64 ± 2.0 | 41.37% and 41.37 ± 2.40% | 38.70 ± 1.60 | significantly reduced |  | inhibitory effect | 1060 | toxic
Nc1c2c(nc3sc4c(c13)CCC4)CCCCC2 [BN-16, 1,2,3,6,7,8,9,10-Octahydrocyclohepta[b]cyclopenta[4,5]thieno[3,2-e]pyridine-11-amine] | 21.72 ± 2.80 | 52.32 ± 2.37 | 34.10 ± 2.82 | 44.95 ± 2.0 | 45.63% and 45.63 ± 2.87% | 36.30 ± 1.80 | significantly reduced | do not show any toxic symptoms and mortality | inhibitory effect | > 2000 | 
